Source: PubChem BioAssay (NCI)
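48-hour exposure; five concentrations; linearly interpolated endpoints. GI50 marks 50% less growth. TGI marks complete inhibition of growth.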

Columns and labels:
Assay in all cases: DTP human tumour cell line panel, 48 h
[1] = tested on: HS 578T breast
[2] = tested on: MALME-3M melanoma
[3] = tested on: HCT-15 colon
[4] = tested on: TK-10 renal
[5] = tested on: U251 CNS
[6] = tested on: SNB-75 CNS
[7] = tested on: HOP-62 NSCLC
[8] = tested on: LOX IMVI melanoma
[9] = tested on: HL-60(TB) leukemia
[10] = tested on: MDA-MB-435
[11] = tested on: OVCAR-8 ovarian
[12] = tested on: MOLT-4 leukemia
[13] = tested on: COLO 205 colon
[14] = tested on: KM12 colon
[15] = tested on: SK-OV-3 ovarian
[16] = tested on: OVCAR-4 ovarian
[17] = tested on: PC-3 prostate
[18] = tested on: EKVX NSCLC
[19] = tested on: T-47D breast
[20] = tested on: NCI-H226 lung
[21] = tested on: HOP-92 NSCLC
[22] = tested on: DU-145 prostate
[23] = tested on: SNB-19 CNS
[24] = tested on: M14 melanoma
[25] = tested on: RXF 393 renal
[26] = tested on: NCI-H460 lung
[27] = tested on: SN12C renal
[28] = tested on: HCC-2998 colon
[29] = tested on: SK-MEL-2 melanoma
[30] = tested on: HT29 colon
[31] = tested on: OVCAR-3 ovarian
[32] = tested on: SF-539 CNS
[33] = tested on: MDA-MB-468 breast
[34] = tested on: BT-549 breast
[35] = tested on: SK-MEL-5 melanoma
[36] = tested on: NCI-H23 lung
[37] = tested on: MCF7 breast
[38] = tested on: MDA-MB-231 breast
[39] = tested on: SK-MEL-28 melanoma
[40] = tested on: 786-0 renal
[41] = tested on: K-562 leukemia
[42] = tested on: SR leukemia
[43] = tested on: SF-295 CNS
[44] = tested on: IGROV1 ovarian
[45] = tested on: RPMI-8226 leukemia
[46] = tested on: HCT-116 colon
[47] = tested on: NCI/ADR-RES ovarian
[48] = tested on: OVCAR-5 ovarian
[49] = tested on: UACC-257 melanoma
[50] = tested on: A498 renal
[51] = tested on: ACHN renal
[52] = tested on: SF-268 CNS
[53] = tested on: UACC-62 melanoma
[54] = tested on: CCRF-CEM leukemia
[55] = tested on: CAKI-1 renal
[56] = tested on: SW-620 colon
[57] = tested on: UO-31 renal
[58] = tested on: NCI-H522 lung
[59] = tested on: A549 NSCLC

O=C(NN1C(=O)/C(=C/C=C/c2ccc([N+](=O)[O-])o2)SC1=S)c1ccc(Cl)cc1
GI50 [1]: 1350 nM | TGI [1]: 4550 nM | GI50 [2]: 186 nM | TGI [2]: 347 nM | GI50 [3]: 64.7 nM | TGI [3]: 208 nM | GI50 [4]: 1470 nM | TGI [4]: 2920 nM | GI50 [5]: 306 nM | TGI [5]: 1120 nM | GI50 [6]: 1200 nM | TGI [6]: 2820 nM | GI50 [7]: 780 nM | TGI [7]: 2120 nM | GI50 [8]: 219 nM | TGI [8]: 496 nM | GI50 [9]: 2060 nM | TGI [9]: 11300 nM | GI50 [10]: 203 nM | TGI [10]: 446 nM | GI50 [11]: 245 nM | TGI [11]: 774 nM | GI50 [12]: 397 nM | TGI [12]: 13600 nM | GI50 [13]: 212 nM | TGI [13]: 428 nM | GI50 [14]: 473 nM | TGI [14]: 1910 nM | GI50 [15]: 1710 nM | TGI [15]: 3180 nM | GI50 [16]: 1260 nM | TGI [16]: 2790 nM | GI50 [17]: 863 nM | TGI [17]: 3900 nM | GI50 [18]: 285 nM | TGI [18]: 889 nM | GI50 [19]: 1640 nM | TGI [19]: 3100 nM | GI50 [20]: 247 nM | TGI [20]: 601 nM | GI50 [21]: 299 nM | TGI [21]: 734 nM | GI50 [22]: 614 nM | TGI [22]: 1550 nM | GI50 [23]: 1270 nM | TGI [23]: 2540 nM | GI50 [24]: 189 nM | TGI [24]: 369 nM | GI50 [25]: 239 nM | TGI [25]: 837 nM | GI50 [26]: 252 nM | TGI [26]: 648 nM | GI50 [27]: 172 nM | TGI [27]: 375 nM | GI50 [28]: 268 nM | TGI [28]: 706 nM | GI50 [29]: 219 nM | TGI [29]: 503 nM | GI50 [30]: 221 nM | TGI [30]: 475 nM | GI50 [31]: 268 nM | TGI [31]: 747 nM | GI50 [32]: 202 nM | TGI [32]: 401 nM | GI50 [33]: 1480 nM | TGI [33]: 3090 nM | GI50 [34]: 225 nM | TGI [34]: 519 nM | GI50 [35]: 214 nM | TGI [35]: 500 nM | GI50 [36]: 202 nM | TGI [36]: 442 nM | GI50 [37]: 293 nM | TGI [37]: 1440 nM | GI50 [38]: 180 nM | TGI [38]: 341 nM | GI50 [39]: 356 nM | TGI [39]: 1100 nM | GI50 [40]: 241 nM | TGI [40]: 550 nM | GI50 [41]: 121 nM | TGI [41]: 8280 nM | GI50 [42]: 45.4 nM | TGI [42]: > 100000 nM | GI50 [43]: 1740 nM | TGI [43]: 3280 nM | GI50 [44]: 596 nM | TGI [44]: 1390 nM | GI50 [45]: 318 nM | TGI [45]: 2180 nM | GI50 [46]: 84.8 nM | TGI [46]: 253 nM | GI50 [47]: 493 nM | TGI [47]: 2000 nM | GI50 [48]: 734 nM | TGI [48]: 2000 nM | GI50 [49]: 1480 nM | TGI [49]: 3220 nM | GI50 [50]: 4200 nM | TGI [50]: 9700 nM | GI50 [51]: 288 nM | TGI [51]: 780 nM | GI50 [52]: 1530 nM | TGI [52]: 4110 nM | GI50 [53]: 223 nM | TGI [53]: 564 nM | GI50 [54]: 316 nM | TGI [54]: 9260 nM | GI50 [55]: 346 nM | TGI [55]: 1140 nM | GI50 [56]: 143 nM | TGI [56]: 310 nM | GI50 [57]: 671 nM | TGI [57]: 1970 nM | GI50 [58]: 180 nM | TGI [58]: 353 nM

O=C(OCCOCCO)N(c1cccc(Br)c1)c1nc(SCCN2CCOCC2)nc2c1cnn2CC(Cl)c1ccc(Br)cc1 (configuration not stated)
GI50 [1]: 3590 nM | TGI [1]: > 100000 nM | GI50 [2]: 3170 nM | TGI [2]: 17800 nM | GI50 [3]: 2840 nM | TGI [3]: 10100 nM | GI50 [4]: 93400 nM | TGI [4]: > 100000 nM | GI50 [5]: 6390 nM | TGI [5]: > 100000 nM | GI50 [6]: 3340 nM | TGI [6]: > 100000 nM | GI50 [7]: 4410 nM | TGI [7]: > 100000 nM | GI50 [8]: 1720 nM | TGI [8]: 3210 nM | GI50 [9]: 2360 nM | TGI [9]: 6250 nM | GI50 [10]: 3830 nM | TGI [10]: > 100000 nM | GI50 [11]: 6930 nM | TGI [11]: > 100000 nM | GI50 [12]: 2310 nM | TGI [12]: 6510 nM | GI50 [13]: 1990 nM | TGI [13]: 4430 nM | GI50 [14]: 3880 nM | TGI [14]: > 100000 nM | GI50 [15]: 5210 nM | TGI [15]: > 100000 nM | GI50 [16]: 3050 nM | TGI [16]: > 100000 nM | GI50 [17]: 3280 nM | TGI [17]: > 100000 nM | GI50 [18]: 5550 nM | TGI [18]: > 100000 nM | GI50 [19]: 5000 nM | TGI [19]: > 100000 nM | GI50 [20]: 5630 nM | TGI [20]: > 100000 nM | GI50 [21]: 7620 nM | TGI [21]: > 100000 nM | GI50 [22]: 9880 nM | TGI [22]: > 100000 nM | GI50 [23]: 9170 nM | TGI [23]: 24800 nM | GI50 [24]: 3670 nM | TGI [24]: > 100000 nM | GI50 [25]: 1780 nM | TGI [25]: 5050 nM | GI50 [26]: 3770 nM | TGI [26]: > 100000 nM | GI50 [27]: 4910 nM | TGI [27]: > 100000 nM | GI50 [28]: 3840 nM | TGI [28]: > 100000 nM | GI50 [29]: 6680 nM | TGI [29]: 22100 nM | GI50 [30]: 2730 nM | TGI [30]: > 100000 nM | GI50 [31]: 5540 nM | TGI [31]: > 100000 nM | GI50 [59]: 5040 nM | TGI [59]: > 100000 nM | GI50 [33]: 2470 nM | TGI [33]: 7630 nM | GI50 [35]: 10100 nM | TGI [35]: 70700 nM | GI50 [36]: 3270 nM | TGI [36]: 15000 nM | GI50 [37]: 3150 nM | TGI [37]: > 100000 nM | GI50 [39]: 3350 nM | TGI [39]: 18000 nM | GI50 [40]: 2510 nM | TGI [40]: > 100000 nM | GI50 [42]: 2000 nM | TGI [42]: > 100000 nM | GI50 [44]: 8250 nM | TGI [44]: > 100000 nM | GI50 [46]: 2620 nM | TGI [46]: > 100000 nM | GI50 [47]: 3520 nM | TGI [47]: > 100000 nM | GI50 [48]: 5150 nM | TGI [48]: > 100000 nM | GI50 [49]: 10500 nM | TGI [49]: > 100000 nM | GI50 [50]: > 100000 nM | TGI [50]: > 100000 nM | GI50 [51]: 3900 nM | TGI [51]: > 100000 nM | GI50 [52]: 4820 nM | TGI [52]: > 100000 nM | GI50 [53]: 3330 nM | TGI [53]: 12400 nM | GI50 [54]: 2890 nM | TGI [54]: 12100 nM | GI50 [55]: 4380 nM | TGI [55]: > 100000 nM | GI50 [56]: 3710 nM | TGI [56]: > 100000 nM | GI50 [57]: 4570 nM | TGI [57]: > 100000 nM | GI50 [58]: 3150 nM | TGI [58]: 13100 nM
